Article PMC9714824, “Hexapeptides from mammalian inhibitory hormone hunt activate and inactivate nematode reproduction” (PLOS ONE, 2022)

Key:
[1] = tested on: MCF-7 human breast adenocarcinoma xenografts; experiment: MCF-7 xenograft study with untreated control (second study); type: in vivo, nude mice; conditions: for Tumour growth delay compared to controls: in words; for Max % weight loss / Median RTV2 / Growth delay: second study; for Max % weight loss: 100mg/kg/day i.p.; for Median RTV2: 100mg/kg/day i.p. days 0-17, n=8; for Growth delay: vs untreated control
Procedure: The MCF-7 human breast adenocarcinoma model was selected for xenograft studies. […] An oestrogen pellet was implanted subcutaneously in the dorsal area 24 hours prior to 2-3mm^3 fragments of MCF-7 tumour taken from donor tumours transplanted subcutaneously in the abdominal flanks of the efficacy study mice. Once tumour volumes reached approximately 32 mm^3 (as measured by calipers, designated treatment Day 0) mice were randomised into one of three groups (n = 8) as follows: EPL001 or EPL030 at 100 mg/kg/day administered i.p. on […], plus a peptide-untreated (PBS only) control group. Tumour volume, using calipers, and animal body weight were recorded throughout the experiment and normalised to the respective tumour volume on the initial day of treatment (Day 0). Mann-Whitney U tests were conducted to determine the statistical significance of any differences in growth rate (based on tumour volume doubling time) between control and treated groups.
The MCF-7 human breast adenocarcinoma model was selected for two xenograft studies. An oestrogen pellet was implanted subcutaneously in the dorsal area 24 hours prior to 2-3mm^3 fragments of MCF-7 tumour taken from donor tumours transplanted subcutaneously in the abdominal flanks of the efficacy study mice. Once tumour volumes reached approximately 32 mm^3 (as measured by calipers, designated treatment day 0) mice were randomised into treatment groups (n=8).
In the second study three groups were used as follows: EPL001 or EPL030 at 100mg/kg/day administered i.p. on days 0-17, plus an untreated control group.
Tumour volume, using calipers, and animal body weight were recorded throughout the experiment and normalised to the respective volume on the initial day of treatment (day 0). Mann-Whitney U tests were conducted to determine the statistical significance of any differences in growth rate (based on tumour volume doubling time) between control and treated groups.

[2] = tested on: circulating levels of the anterior pituitary hormones LH, GH and PRL; experiment: Intracerebroventricular infusion in sheep, RIA of circulating pituitary hormones; type: in vivo, Ovis aries; conditions: for GH, percentage difference between After and Before / LH, percentage difference between After and Before / PRL, percentage difference between After and Before: ICV 100 μg/h for 24h; for GH, After / LH, After / PRL, After: last 6h of ICV infusion, 100 μg/h for 24h, one sheep, RIA, mean +/− SEM
Procedure: A sheep study involved randomly selected Corriedale ewes (Ovis aries) of typically 5–6 years of age maintained under natural conditions at the Monash University Sheep Facility, Werribee, Victoria, Australia. EPL001 and EPL030 were subject to intracerebroventricular (ICV) infusion separately in vivo via a permanent cannula into the third ventricle of the brains of one sheep each at 100 μg/h for 24h. The zone that forms the floor of the third ventricle is that part of the hypothalamus called the median eminence. This is the anatomical interface between the brain and the anterior pituitary. Immunostaining in the ovine median eminence, in the form of axonal beading, has been reported with an anti-EPL001 antibody. The aim here was to evaluate the impact on the ovine hypothalamic-pituitary axis of infusion from above the hypothalamus. Circulating levels of the anterior pituitary hormones LH (luteinising hormone), GH (growth hormone) and PRL (prolactin) were measured by radioimmunoassay (RIA) prior to and in the closing stages of infusion. Systemic blood samples from an indwelling jugular venous cannula were taken at 10 min intervals for 6h prior to infusion (‘Before’) and over the last 6h of infusion (‘After’).

PC3 cells = experiment: MTS colorimetric viable cell assay, PC3; type: cell-based, human; conditions: for OD below that of EPL001: PC3 time course study
Summary of the method: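 Cells seeded at 8,000/well, given peptides (14mer to 6mer) at 30 μM final at the outset, triplicate, buffer controls; viable cells by MTS absorbance at 492 nm after 27 h growth. Data as OD mean ± SEM, two-tailed t-test; a 14mer time course on PC3 read at 24 and 48 h.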

[3] = tested on: human prostate cancer cell lines (LNCaP, PC3 and DU145); experiment: 3H-thymidine incorporation, prostate cancer cells; type: cell-based; conditions: 0.06 or 6 μM, 24h then 48h pulse; in words (Fig 4)
Procedure: For assays involving 14mer peptides only human prostate cancer cell lines (LNCaP, PC3 and DU145) were obtained from ATCC (American Tissue Type Culture Collection, Rockville, MD, USA). Cells were cultured in DMEM (Dulbecco’s […], Life Technologies, Grand Island, NY, USA) supplemented with 10% fetal calf serum (FCS, heat-inactivated), 100 IU/ml penicillin and 10 μg/ml streptomycin (all CSL, Parkville, Victoria, Australia) in 75 cm^2 culture flasks (Becton Dickinson, Franklin Lakes, NJ, USA) and were maintained at 37°C in a humidified incubator with […]. Incorporation of ^3H-thymidine was used to assess DNA synthesis. Cells were seeded overnight at 0.5 x 10^5 cells per well in 24-well tissue culture plates in DMEM culture medium (supplemented as above with 10% FCS, penicillin and streptomycin). Cell growth was synchronised by culturing cells in DMEM containing 0.1% bovine serum albumin (supplemented with penicillin and streptomycin, but without FCS) for 24h. […]
Fig 4 EPL001 and EPL030 effects on human prostate cancer cell growth in vitro. Cell proliferation was determined by ^3H-thymidine incorporation. […]

Sequence | Tumour growth delay compared to controls ([1]; 100 mg/kg/day i.p., n = 8) | Tumour growth at termination compared with PBS-only controls ([1]; 100 mg/kg/day i.p., n = 8, ns) [%] | Max % weight loss [1] [%] | Median RTV2 [1] [days] | Growth delay [1] [days] | GH, percentage difference between After and Before [2] | LH, percentage difference between After and Before [2] | PRL, percentage difference between After and Before [2] [%] | GH, After [2] [ng/mL] | LH, After [2] [ng/mL] | PRL, After [2] [ng/mL] | OD below that of EPL001 (PC3 cells; 24h) [%] | OD below that of EPL001 (PC3 cells; 48h) [%] | Cell proliferation by 3H-thymidine incorporation [3] | Difference in percentage terms between control and test OD means (PC3 cells; PC3, 30 μM, 27h, MTS, 492 nm, triplicate) [%]
KLKMNGKNIEPVFT [EPL030, …, scrambled EPL001 control] | no statistically significant tumour growth delay | −20.2 | 2.4 | 3.6 | 0.1 | +43.8% | +7.4% | −23.8 | 7.82 ± 0.80 | 12.89 ± 3.78 | 107.03 ± 18.92 | 18.9 | 51.3 | antiproliferative | 
MKPLTGKVKEFNNI [EPL001, 14mer master test peptide …; ovine provenance] | no statistically significant tumour growth delay |  | 0 | 4.6 | 1.1 | +25.4% | +13.4% | −28.5 | 3.41 ± 0.63 | 6.48 ± 0.90 | 95.14 ± 21.62 |  |  | antiproliferative | −0.7
